Measured values reported in patent US12559529B2, “NPY2 receptor agonists” (Boehringer Ingelheim International GmbH, priority 2019, dated 2026).
*1 amine or outer side, *2 acyl side, *3 side chain or, on linkers, in order; H or OH if unused. Where a SMILES comes first, the peptide text is derived from it. Side-chain parts run from the residue outwards. The star is where a group is joined. C18 diacid = O=C(O)CCCCCCCCCCCCCCCCC(=O)*; γGlu = O=C(O)[C@H](CCC(=O)[*:2])N[*:1]; Isovaleryl = CC(C)CC(=O)*; AEEA = NCCOCCOCC(=O)O

Tested on: normal NMRI mice
Test: Effect on acute food intake in normal NMRI mice
Assay type: in vivo
Settings: male NMRI mice, 10 nmol/kg subcutaneously once
Method: Male NMRI mice were obtained from Charles River (Charles River, Research Models & Services Germany GmbH) or from Jan Vier (Jan Vier Labs, France) at 5 weeks of age. […] Room temperature was controlled to 21° C.±1° C., with 60%+20% humidity.
Animals were transferred 5-7 days before the start of the study to a real-time food intake monitoring system, HM-2 system (MBRose, Denmark), to allow acclimatization to experimental conditions. As the animals were uniquely identified with microchips, each individual animal was identified by its microchip upon entry and exit from the food channel. Randomization of the mice for each study group (n=7-8) was based on body weight measured the day before the start of the study. A vehicle-treated (50 mM phosphate buffer pH7 with 5% Mannitol) group was included in each experiment. Six hours before the start of the night phase animals were fasted. One hour before the dark phase animals were dosed once subcutaneously (10 nmol/kg) with test peptide. […] The food intake of the treated groups was normalized (in %) to the average food intake of the group receiving vehicle (Table 7). Statistical significance was evaluated using One-way analysis of variance with Turkey's multiple comparison test. P<0.05 was considered statistically significant.

Structure (SMILES)	Acute Food Intake 24 h [% vehicle]
CC(C)CC(=O)N[C@@H](C)C(=O)N1CCC[C@H]1C(=O)N[C@@H](CCC(=O)O)C(=O)N[C@@H](CCCCNC(=O)COCCOCCNC(=O)COCCOCCNC(=O)CC[C@H](NC(=O)CCCCCCCCCCCCCCCCC(=O)O)C(=O)O)C(=O)N1CCC[C@H]1C(=O)N[C@@H](CCC(=O)O)C(=O)N[C@@H](C)C(=O)N[C@@H](CC(=O)O)C(=O)N[C@@H](C)C(=O)N[C@@H](CO)C(=O)N[C@@H](CCC(=O)O)C(=O)N[C@@H](CCC(=O)O)C(=O)N[C@@H](CCC(=O)O)C(=O)N[C@@H](CC(C)C)C(=O)N[C@@H](CCC(N)=O)C(=O)N[C@@H](CCCNC(=N)N)C(=O)N[C@@H](Cc1ccc(O)cc1)C(=O)N[C@@H](Cc1ccc(O)cc1)C(=O)N[C@H](C(=O)N[C@@H](CO)C(=O)N[C@@H](CC(C)C)C(=O)N[C@@H](CCCNC(=N)N)C(=O)N[C@@H](Cc1c[nH]cn1)C(=O)N[C@@H](Cc1ccc(O)cc1)C(=O)N[C@@H](Cc1ccc(O)cc1)C(=O)N[C@@H](CC(N)=O)C(=O)N[C@@H](Cc1c[nH]c2ccccc12)C(=O)N[C@@H](CC(C)C)C(=O)N[C@H](C(=O)N[C@@H](CCCNC(=N)N)C(=O)N[C@@H](CCC(N)=O)C(=O)N[C@@H](CCCNC(=N)N)C(=O)N[C@@H](Cc1ccc(O)cc1)C(N)=O)[C@@H](C)O)C(C)C [Compound 30, N{alpha-4}-(3-methylbutanoyl)-N{epsilon-7}-[2-(2-{2-[2-(2-{2-[(4S)-4-carboxy-4-(17-carboxyheptadecanamido)butanamido]ethoxy}ethoxy)acetamido]ethoxy}ethoxy)acetamido]-[4A,7K,9E,10A,14E,18Q,22V,28Y,30W,31L]hPYY (4-36)]	45
CC(C)CC(=O)N[C@@H](C)C(=O)N1CCC[C@H]1C(=O)N[C@@H](CCC(=O)O)C(=O)N[C@@H](CCCCNC(=O)COCCOCCNC(=O)COCCOCCNC(=O)CC[C@H](NC(=O)CCCCCCCCCCCCCCCCC(=O)O)C(=O)O)C(=O)N1CCC[C@H]1C(=O)N[C@@H](CCC(=O)O)C(=O)N[C@@H](CCC(=O)O)C(=O)N[C@@H](CC(=O)O)C(=O)N[C@@H](C)C(=O)N[C@@H](CO)C(=O)N1CCC[C@H]1C(=O)N[C@@H](CCC(=O)O)C(=O)N[C@@H](CCC(=O)O)C(=O)N[C@@H](CC(C)C)C(=O)N[C@@H](CCC(N)=O)C(=O)N[C@@H](CCC(N)=O)C(=O)N[C@@H](Cc1ccc(O)cc1)C(=O)N[C@@H](Cc1ccc(O)cc1)C(=O)N[C@H](C(=O)N[C@@H](CO)C(=O)N[C@@H](CC(C)C)C(=O)N[C@@H](CCCNC(=N)N)C(=O)N[C@@H](Cc1c[nH]cn1)C(=O)N[C@@H](Cc1ccc(O)cc1)C(=O)N[C@@H](Cc1ccc(O)cc1)C(=O)N[C@@H](CC(N)=O)C(=O)N[C@@H](Cc1c[nH]c2ccccc12)C(=O)N[C@@H](CC(C)C)C(=O)N[C@H](C(=O)N[C@@H](CCCNC(=N)N)C(=O)N[C@@H](CCC(N)=O)C(=O)N[C@@H](CCCNC(=N)N)C(=O)N[C@@H](Cc1ccc(O)cc1)C(N)=O)[C@@H](C)O)C(C)C [Compound 58, N{alpha-4}-(3-methylbutanoyl)-N{epsilon-7}-[2-(2-{2-[2-(2-{2-[(4S)-4-carboxy-4-(17-carboxyheptadecanamido)butanamido]ethoxy}ethoxy)acetamido]ethoxy}ethoxy)acetamido]-[4A,7K,9E,18Q,19Q,22V,28Y,30W,31L]hPYY (4-36)]	44
CC(C)CC(=O)N[C@@H](C)C(=O)N1CCC[C@H]1C(=O)N[C@@H](CCC(=O)O)C(=O)N[C@@H](CCCCNC(=O)COCCOCCNC(=O)COCCOCCNC(=O)CC[C@H](NC(=O)CCCCCCCCCCCCCCCCC(=O)O)C(=O)O)C(=O)N1CCC[C@H]1C(=O)N[C@@H](CCC(=O)O)C(=O)N[C@@H](CCC(=O)O)C(=O)N[C@@H](CCC(=O)O)C(=O)N[C@@H](C)C(=O)N[C@@H](CO)C(=O)N1CCC[C@H]1C(=O)N[C@@H](CCC(=O)O)C(=O)N[C@@H](CCC(=O)O)C(=O)N[C@@H](CC(C)C)C(=O)N[C@@H](CCC(N)=O)C(=O)N[C@@H](CCCNC(=N)N)C(=O)N[C@@H](Cc1ccc(O)cc1)C(=O)N[C@@H](CCC(=O)O)C(=O)N[C@H](C(=O)N[C@@H](CO)C(=O)N[C@@H](CC(C)C)C(=O)N[C@@H](CCCNC(=N)N)C(=O)N[C@@H](Cc1c[nH]cn1)C(=O)N[C@@H](Cc1ccc(O)cc1)C(=O)N[C@@H](Cc1ccc(O)cc1)C(=O)N[C@@H](CC(N)=O)C(=O)N[C@@H](Cc1c[nH]c2ccccc12)C(=O)N[C@@H](CC(C)C)C(=O)N[C@H](C(=O)N[C@@H](CCCNC(=N)N)C(=O)N[C@@H](CCC(N)=O)C(=O)N[C@@H](CCCNC(=N)N)C(=O)N[C@@H](Cc1ccc(O)cc1)C(N)=O)[C@@H](C)O)C(C)C [Compound 154, N{alpha-4}-(3-methylbutanoyl)-N{epsilon-7}-[2-(2-{2-[2-(2-{2-[(4S)-4-carboxy-4-(17-carboxyheptadecanamido)butanamido]ethoxy}ethoxy)acetamido]ethoxy}ethoxy)acetamido]-[4A,7K,9E,11E,18Q,21E,22V,28Y,30W,31L]hPYY (4-36)] (Isovaleryl-APEK([AEEA-AEEA-γGlu-C18 diacid])PEEEASPEELQRYEVSLRHYYNWLTRQRY-NH2)	73
CC(C)CC(=O)N[C@@H](C)C(=O)N1CCC[C@H]1C(=O)N[C@@H](CCC(=O)O)C(=O)N[C@@H](CCCCNC(=O)COCCOCCNC(=O)COCCOCCNC(=O)CC[C@H](NC(=O)CCCCCCCCCCCCCCCCC(=O)O)C(=O)O)C(=O)N1CCC[C@H]1C(=O)N[C@@H](CCC(=O)O)C(=O)N[C@@H](C)C(=O)N[C@@H](CC(=O)O)C(=O)N[C@@H](C)C(=O)N[C@@H](CO)C(=O)N1CCC[C@H]1C(=O)N[C@@H](CCC(=O)O)C(=O)N[C@@H](CCC(=O)O)C(=O)N[C@@H](CC(C)C)C(=O)N[C@@H](CCC(=O)O)C(=O)N[C@@H](CCC(N)=O)C(=O)N[C@@H](Cc1ccc(O)cc1)C(=O)N[C@@H](Cc1ccc(O)cc1)C(=O)N[C@H](C(=O)N[C@@H](CO)C(=O)N[C@@H](CC(C)C)C(=O)N[C@@H](CCCNC(=N)N)C(=O)N[C@@H](Cc1c[nH]cn1)C(=O)N[C@@H](Cc1ccc(O)cc1)C(=O)N[C@@H](Cc1ccc(O)cc1)C(=O)N[C@@H](CC(N)=O)C(=O)N[C@@H](Cc1c[nH]c2ccccc12)C(=O)N[C@@H](CC(C)C)C(=O)N[C@H](C(=O)N[C@@H](CCCNC(=N)N)C(=O)N[C@@H](CCC(N)=O)C(=O)N[C@@H](CCCNC(=N)N)C(=O)N[C@@H](Cc1ccc(O)cc1)C(N)=O)[C@@H](C)O)C(C)C [Compound 159, N{alpha-4}-(3-methylbutanoyl)-N{epsilon-7}-[2-(2-{2-[2-(2-{2-[(4S)-4-carboxy-4-(17-carboxyheptadecanamido)butanamido]ethoxy}ethoxy)acetamido]ethoxy}ethoxy)acetamido]-[4A,7K,9E,10A,18E,19Q,22V,28Y,30W,31L]hPYY (4-36)]	53
